The record followed here is ChEMBL document CHEMBL4334505, “Tri- and Diterpenoids from Stillingia loranthacea as Inhibitors of Zika Virus Replication” (J Nat Prod, 2019).

Structures are written as SMILES. Active and inactive are the calls of the source. The rule behind the calls is not given here.

Data set [1] is described as follows: (§1) Cytotoxicity against African green monkey Vero cells assessed as reduction in cell viability measured after 1 hr by MTT assay. The format is cell-based. As to conditions: chlorocebus sabaeus, Vero cells. For orientation: Tetrazolium dyes change colour on reduction, which living cells bring about.
In data set [2] the test system is Vero. The data set is described as §1. The format is cell-based. As to conditions: chlorocebus sabaeus, vero, 1 h.
In data set [3] the test system is Zika virus. Briefly: Antiviral activity against Zika virus PE243 infected in African green monkey Vero cells assessed as reduction in viral replication by measuring viral titer at CC20 incubated for 5 days by standard TCID50 method. The format is functional, organism-based.
Data set [4] concerns Zika virus. Briefly: Antiviral activity against Zika virus PE243 infected in African green monkey Vero cells assessed as reduction in viral replication by measuring viral titer per ml of cells at CC20 incubated for 5 days by standard TCID50 method (reference value: 6.7). The format is functional.
Data set [5] can be described thus: (§2) Cytotoxicity against African green monkey Vero cells assessed as reduction in cell viability measured after 120 hrs by MTT assay. Format: cell-based. To be noted: chlorocebus sabaeus, Vero cells.
The subject of data set [6] is Vero. The data set is described as §2. To be noted: chlorocebus sabaeus, vero, 120 h. Format: cell-based.

`CCCCCCCCCCCCCC(=O)O[C@@]12C[C@@H](C)[C@@]3(O)[C@@H](C=C(CO)C[C@]4(O)C(=O)C(C)=C[C@@H]34)[C@@H]1C2(C)C`: the 50% cytotoxic concentration (CC50) at 1 h in data set [1] lay in the range of 24.6 to 848 µM. Moreover, the CC20 with Vero [2] was in the range of 8.7 to 328 µM. Also, in the data set with Zika virus [3], the inhibition result is “Active”.

On to `CC(=O)O[C@H](C)/C(C)=C/C(=O)O[C@@H]1[C@H](C)C[C@H]2O[C@]1(O)[C@@H](O)[C@@]1(C)CC[C@H](O1)C(C)(C)/C=C/[C@H](C)C2=O`, for which the CC20 in the data set on Vero [2] was 8.7 to 328 µM.

As for `CC/C(C)=C/C(=O)O[C@@H]1[C@H](C)C[C@H]2O[C@]1(O)[C@@H](O)[C@@]1(C)CC[C@H](O1)C(C)(C)/C=C/[C@H](C)C2=O`, in the data set on Vero [2], the CC20 was in the range of 8.7 to 328 µM.

For `CSc1ncnc2c1ncn2[C@@H]1O[C@H](CO)[C@@H](O)[C@H]1O`, the “log10 TCID50” value in the data set on Zika virus [4] was found to be 5.4. The CC50 at 120 h in data set [5] came out at 291 µM. Also, in the data set with Vero [6], the CC20 turned out to be 60.5 µM.

On to `CCCCCCCC/C=C\CCCC(=O)O[C@@]12C[C@@H](C)[C@@]3(O)[C@@H](C=C(C=O)C[C@]4(O)C(=O)C(C)=C[C@@H]34)[C@@H]1C2(C)C`, for which the CC50 at 1 h in data set [1] lay within 24.6 to 848 µM. Besides, the CC20 with Vero [2] was in the range of 8.7 to 328 µM.

With `CC1(C)CC[C@@H]2C(=O)C=C3[C@]4(C)CC[C@@H]5[C@](C)(CC[C@@H](OC(=O)c6ccccc6)[C@@]5(C)C(=O)O)[C@H]4CC[C@@]3(C)[C@@H]2C1`, the CC50 at 1 h in data set [1] fell in the range of 24.6 to 848 µM. Moreover, in the data set on Vero [2], the CC20 lay within 8.7 to 328 µM.

With `CCCCCCCC/C=C\CCCC(=O)O[C@@]12C[C@@H](C)[C@@]3(O)[C@@H](C=C(CO)C[C@]4(O)C(=O)C(C)=C[C@@H]34)[C@@H]1C2(C)C`, the CC50 at 1 h in data set [1] is 24.6 to 848 µM. Also, the CC20 in the data set with Vero [2] lay within 8.7 to 328 µM. The “log10 TCID50” value with Zika virus [4] worked out at 1.8. The inhibition entry in the data set on Zika virus [3] was “Active”.

For `CCCCCCCCCCCC(=O)O[C@@]12C[C@@H](C)[C@@]3(O)[C@@H](C=C(C=O)C[C@]4(O)C(=O)C(C)=C[C@@H]34)[C@@H]1C2(C)C`, the CC50 at 1 h in data set [1] is 24.6 to 848 µM. The CC20 with Vero [2] is 8.7 to 328 µM.

With `CCCCCCCCCCCCCCCC(=O)O[C@@H]1[C@@H](C)[C@]2(O)[C@@H]3C=C(C)C(=O)[C@@H]3CC(C=O)=C[C@H]2[C@@H]2C(C)(C)[C@]12OC(C)=O`, the CC50 at 1 h in data set [1] is 24.6 to 848 µM. In addition, in the data set on Vero [2], the CC20 was in the range of 8.7 to 328 µM.

On to `CCCCCCCCCCCC(=O)O[C@@]12C[C@@H](C)[C@@]3(O)[C@@H](C=C(CO)C[C@]4(O)C(=O)C(C)=C[C@@H]34)[C@@H]1C2(C)C`, for which the CC50 at 1 h in data set [1] lay within 24.6 to 848 µM. In addition, the CC20 in the data set on Vero [2] was 8.7 to 328 µM. The inhibition result in the data set on Zika virus [3] is “Active”.

Turning to `C/C(=C\C(=O)O[C@@H]1[C@H](C)C[C@H]2O[C@]1(O)[C@@H](O)[C@@]1(C)CC[C@H](O1)C(C)(C)/C=C/[C@H](C)C2=O)C(C)O` (stereo partly specified), the CC20 in the data set on Vero [2] is 8.7 to 328 µM.

Regarding `CCCCCCCCCCCCCCCC(=O)O[C@@H]1[C@@H](C)[C@]2(O)[C@@H]3C=C(C)C(=O)[C@@H]3CC(CO)=C[C@H]2[C@@H]2C(C)(C)[C@]12OC(C)=O`, the CC50 at 1 h in data set [1] is 24.6 to 848 µM. Further, the CC20 in the data set on Vero [2] lay in the range of 8.7 to 328 µM. Besides, the inhibition entry in the data set with Zika virus [3] is “Active”.

With `CC1(C)CC[C@@H]2C(=O)C=C3[C@]4(C)CC[C@@H]5[C@](C)(CC[C@@H](OC(=O)/C=C/c6ccccc6)[C@@]5(C)C(=O)O)[C@H]4CC[C@@]3(C)[C@@H]2C1`, the CC50 at 1 h in data set [1] was in the range of 24.6 to 848 µM. For the same compound, in the data set with Vero [2], the CC20 lay within 8.7 to 328 µM. Further, in the data set on Zika virus [4], the “log10 TCID50” value is listed as 1.7. The inhibition result in the data set with Zika virus [3] was “Active”.

For orientation: CC50 means the concentration that lowers cell viability or growth by half.
